Measured values from the NIST ThermoML archive (doi:10.1016/j.jct.2017.06.008).

Key:
[1] = refractive index (Na D-line) (dimensionless); xn = mol fraction of the nth substance listed; conditions: 100 kPa, Liquid, Standard Abbe refractometry
[2] = xn = mol fraction of the nth substance listed; conditions: 100 kPa, Liquid; for speed of sound: Frequency=3 MHz, Single path-length method; for mass density: Vibrating tube method

CC(=O)CC(C)C [4-methylpentan-2-one] + C1CCCCC1
Conditions | mass density, 293.15 K [kg/m3] | mass density, 303.15 K [kg/m3] | mass density, 313.15 K [kg/m3] | refractive index, 293.15 K | refractive index, 303.15 K | refractive index, 313.15 K | speed of sound, 293.15 K [m/s] | speed of sound, 303.15 K [m/s] | speed of sound, 313.15 K [m/s]
[1], x1 = 0.0978 | – | – | – | 1.421 | 1.416 | 1.411 | – | – | –
[1], x1 = 0.1984 | – | – | – | 1.417 | 1.412 | 1.406 | – | – | –
[1], x1 = 0.3014 | – | – | – | 1.413 | 1.408 | 1.403 | – | – | –
[1], x1 = 0.4007 | – | – | – | 1.41 | 1.405 | 1.4 | – | – | –
[1], x1 = 0.5023 | – | – | – | 1.407 | 1.402 | 1.397 | – | – | –
[1], x1 = 0.6028 | – | – | – | 1.404 | 1.399 | 1.394 | – | – | –
[1], x1 = 0.7038 | – | – | – | 1.402 | 1.397 | 1.392 | – | – | –
[1], x1 = 0.8062 | – | – | – | 1.399 | 1.395 | 1.39 | – | – | –
[1], x1 = 0.9004 | – | – | – | 1.398 | 1.393 | 1.388 | – | – | –
[1], x1 = 1 | – | – | – | 1.396 | 1.391 | 1.387 | – | – | –
[2], x1 = 0.0978 | 778 | 769 | 759 | – | – | – | 1260.7 | 1212.6 | 1165.6
[2], x1 = 0.1984 | 780 | 770 | 760 | – | – | – | 1246.9 | 1200 | 1154
[2], x1 = 0.3014 | 781 | 772 | 762 | – | – | – | 1236.2 | 1190.3 | 1145.3
[2], x1 = 0.4007 | 783 | 774 | 764 | – | – | – | 1228.8 | 1183.5 | 1139.2
[2], x1 = 0.5023 | 786 | 776 | 767 | – | – | – | 1222 | 1178 | 1134.6
[2], x1 = 0.6028 | 788 | 779 | 770 | – | – | – | 1217.4 | 1174.2 | 1131.6
[2], x1 = 0.7038 | 791 | 782 | 773 | – | – | – | 1214.2 | 1171.8 | 1129.9
[2], x1 = 0.8062 | 794 | 785 | 776 | – | – | – | 1212.1 | 1170.4 | 1129.2
[2], x1 = 0.9004 | 797 | 788 | 779 | – | – | – | 1211.3 | 1170.2 | 1129.6
[2], x1 = 1 | 801 | 792 | 782 | – | – | – | 1212.3 | 1171.4 | 1131.4

CC(=O)CC(C)C [4-methylpentan-2-one] + CC#N
Conditions | mass density, 293.15 K [kg/m3] | mass density, 303.15 K [kg/m3] | mass density, 313.15 K [kg/m3] | refractive index, 293.15 K | refractive index, 303.15 K | refractive index, 313.15 K | speed of sound, 293.15 K [m/s] | speed of sound, 303.15 K [m/s] | speed of sound, 313.15 K [m/s]
[1], x1 = 0.102 | – | – | – | 1.355 | 1.35 | 1.345 | – | – | –
[1], x1 = 0.1961 | – | – | – | 1.363 | 1.358 | 1.353 | – | – | –
[1], x1 = 0.3082 | – | – | – | 1.371 | 1.366 | 1.361 | – | – | –
[1], x1 = 0.4019 | – | – | – | 1.376 | 1.371 | 1.367 | – | – | –
[1], x1 = 0.5188 | – | – | – | 1.381 | 1.377 | 1.372 | – | – | –
[1], x1 = 0.6001 | – | – | – | 1.385 | 1.38 | 1.375 | – | – | –
[1], x1 = 0.7014 | – | – | – | 1.388 | 1.384 | 1.379 | – | – | –
[1], x1 = 0.8008 | – | – | – | 1.391 | 1.387 | 1.382 | – | – | –
[1], x1 = 0.8801 | – | – | – | 1.393 | 1.389 | 1.384 | – | – | –
[1], x1 = 1 | – | – | – | 1.396 | 1.391 | 1.387 | – | – | –
[2], x1 = 0.102 | 786 | 776 | 765 | – | – | – | 1280.4 | 1239.9 | 1199.1
[2], x1 = 0.1961 | 790 | 779 | 769 | – | – | – | 1267.6 | 1226.3 | 1185.4
[2], x1 = 0.3082 | 792 | 782 | 772 | – | – | – | 1255.2 | 1213.5 | 1172.5
[2], x1 = 0.4019 | 794 | 784 | 774 | – | – | – | 1245.9 | 1204.6 | 1163.8
[2], x1 = 0.5188 | 796 | 787 | 777 | – | – | – | 1237.4 | 1195.8 | 1155
[2], x1 = 0.6001 | 797 | 788 | 778 | – | – | – | 1231.4 | 1190.3 | 1149.7
[2], x1 = 0.7014 | 798 | 789 | 779 | – | – | – | 1225.4 | 1184.5 | 1144
[2], x1 = 0.8008 | 799 | 790 | 780 | – | – | – | 1220.8 | 1179.6 | 1139.3
[2], x1 = 0.8801 | 800 | 791 | 781 | – | – | – | 1216.6 | 1175.9 | 1135.7
[2], x1 = 1 | 801 | 792 | 782 | – | – | – | 1212.3 | 1171.4 | 1131.4

CC(=O)CC(C)C [4-methylpentan-2-one] + C[S+](C)[O-]
Conditions | mass density, 293.15 K [kg/m3] | mass density, 303.15 K [kg/m3] | mass density, 313.15 K [kg/m3] | refractive index, 293.15 K | refractive index, 303.15 K | refractive index, 313.15 K | speed of sound, 293.15 K [m/s] | speed of sound, 303.15 K [m/s] | speed of sound, 313.15 K [m/s]
[1], x1 = 0.1002 | – | – | – | 1.466 | 1.462 | 1.458 | – | – | –
[1], x1 = 0.2004 | – | – | – | 1.455 | 1.451 | 1.446 | – | – | –
[1], x1 = 0.3004 | – | – | – | 1.445 | 1.441 | 1.436 | – | – | –
[1], x1 = 0.4007 | – | – | – | 1.436 | 1.432 | 1.427 | – | – | –
[1], x1 = 0.4982 | – | – | – | 1.428 | 1.423 | 1.419 | – | – | –
[1], x1 = 0.5999 | – | – | – | 1.42 | 1.416 | 1.411 | – | – | –
[1], x1 = 0.6992 | – | – | – | 1.413 | 1.409 | 1.404 | – | – | –
[1], x1 = 0.7995 | – | – | – | 1.407 | 1.402 | 1.398 | – | – | –
[1], x1 = 0.8981 | – | – | – | 1.401 | 1.397 | 1.392 | – | – | –
[1], x1 = 1 | – | – | – | 1.396 | 1.391 | 1.387 | – | – | –
[2], x1 = 0.1002 | 1052 | 1043 | 1033 | – | – | – | 1453.8 | 1418.9 | 1384.7
[2], x1 = 0.2004 | 1010 | 1001 | 991 | – | – | – | 1409.2 | 1373.8 | 1339.2
[2], x1 = 0.3004 | 973 | 964 | 954 | – | – | – | 1371.9 | 1336 | 1300.8
[2], x1 = 0.4007 | 940 | 931 | 921 | – | – | – | 1338.7 | 1302.9 | 1267.1
[2], x1 = 0.4982 | 912 | 902 | 893 | – | – | – | 1311.8 | 1275.3 | 1238.9
[2], x1 = 0.5999 | 885 | 875 | 866 | – | – | – | 1287.1 | 1249.8 | 1212.7
[2], x1 = 0.6992 | 861 | 851 | 842 | – | – | – | 1266.1 | 1227.9 | 1190
[2], x1 = 0.7995 | 839 | 830 | 820 | – | – | – | 1246.5 | 1207.5 | 1168.9
[2], x1 = 0.8981 | 819 | 810 | 801 | – | – | – | 1229.3 | 1189.2 | 1149.9
[2], x1 = 1 | 801 | 792 | 782 | – | – | – | 1212.3 | 1171.4 | 1131.4

CC(=O)CC(C)C [4-methylpentan-2-one] + CC(C)=O
Conditions | mass density, 293.15 K [kg/m3] | mass density, 303.15 K [kg/m3] | mass density, 313.15 K [kg/m3] | refractive index, 293.15 K | refractive index, 303.15 K | refractive index, 313.15 K | speed of sound, 293.15 K [m/s] | speed of sound, 303.15 K [m/s] | speed of sound, 313.15 K [m/s]
[1], x1 = 0.1004 | – | – | – | 1.365 | 1.359 | 1.354 | – | – | –
[1], x1 = 0.1992 | – | – | – | 1.37 | 1.364 | 1.359 | – | – | –
[1], x1 = 0.3012 | – | – | – | 1.374 | 1.369 | 1.365 | – | – | –
[1], x1 = 0.396 | – | – | – | 1.378 | 1.373 | 1.368 | – | – | –
[1], x1 = 0.5005 | – | – | – | 1.382 | 1.377 | 1.372 | – | – | –
[1], x1 = 0.6912 | – | – | – | 1.388 | 1.383 | 1.379 | – | – | –
[1], x1 = 0.7996 | – | – | – | 1.391 | 1.386 | 1.382 | – | – | –
[1], x1 = 0.8992 | – | – | – | 1.394 | 1.389 | 1.384 | – | – | –
[1], x1 = 1 | – | – | – | 1.396 | 1.391 | 1.387 | – | – | –
[2], x1 = 0.1004 | 791 | 780 | 769 | – | – | – | 1185.7 | 1140.9 | 1096.8
[2], x1 = 0.1992 | 793 | 782 | 771 | – | – | – | 1186.8 | 1143 | 1099.4
[2], x1 = 0.3012 | 794 | 783 | 773 | – | – | – | 1189.2 | 1145.9 | 1102.9
[2], x1 = 0.396 | 795 | 785 | 774 | – | – | – | 1191.8 | 1149 | 1106.4
[2], x1 = 0.5005 | 796 | 786 | 776 | – | – | – | 1194.8 | 1152.4 | 1110.4
[2], x1 = 0.6912 | 798 | 788 | 779 | – | – | – | 1201.1 | 1159.5 | 1118.3
[2], x1 = 0.7996 | 799 | 790 | 780 | – | – | – | 1205.2 | 1163.6 | 1122.9
[2], x1 = 0.8992 | 799 | 791 | 781 | – | – | – | 1208 | 1167.2 | 1126.9
[2], x1 = 1 | 800 | 792 | 782 | – | – | – | 1212.3 | 1171.4 | 1131.4
